# Results: patent US8148373B2, “Compounds” (AstraZeneca AB, priority 2008, dated 2012)
# Columns and labels:
# [1] = molecular target: T1, human muscarinic acetylcholine M3 receptor (M3-ACh) (Homo sapiens, UniProt P20309); assay: Muscarinic 3 Receptor Binding Assay, % inhibition specific binding at 1 μM; conditions: 1 μM compound, % inhibition specific [3H]-NMS binding
# T1 construct: expressed in transfected cells; host or cells: CHO-K1 (Chinese Hamster Ovary) cell membranes
# Protocol: The following experimental procedure was used to determine the M3% inhibition at 1 μM of the compounds of Examples 116-263.
# Muscarinic 3 Receptor Binding Assay
# The activity (% inhibition specific binding) of compounds -on the M3 receptor is determined by competition binding of [^3H]N-methyl scopolamine (NMS) to CHO-K1 (Chinese Hamster Ovary) cell membranes expressing the human muscarinic acetylcholine M3 receptor (M3-ACh) in a scintillation proximity assay (SPA) format.
# SPA beads are precoated with membranes and then incubated at 2 mg of beads per well with 1 μM compound of the invention, [^3H]NMS at 0.1 nM, quarter Kd (experimentally determined dissociation constant) and assay buffer (20 mM HEPES pH 7.4 containing 5 mM MgCl2). The assay is conducted in a final volume of 200 μL, in the presence of 1% (v/v) dimethyl sulphoxide (DMSO). Total binding of [^3H]NMS is determined in the absence of competing compound and non-specific binding of [^3H]NMS is determined in the presence of 1 μM atropine. The plates are incubated for 16 hours at room temperature and then read on Wallac Microbeta™ using a normalised ^3H protocol. The compound activity at 1 defined as % inhibition specific [^3H]-NMS binding, is determined.
# [2] = molecular target: T2, Adrenergic β2 (H292 cells) (Homo sapiens, UniProt P07550); assay: Adrenergic β2 Mediated cAMP Production, single concentration 1 μM; format: cell-based; conditions: percentage of the maximum response generated by 1E-07M formoterol; for activation at 1 µM: NCI-H292, 1 μM compound, read-out: β2 (% effect at 1 μM)
# T2 construct: endogenous in cells; host or cells: H292 cells
# Protocol: The following experimental procedure was used to measure the beta-2% effect at 1 μM for the compounds of Examples 116-263. Adrenergic β2 Mediated cAMP Production Cell Preparation
# H292 cells are grown in 225 cm2 flasks incubator at 37° C., 5% CO2 in RPMI medium containing 10% (v/v) FBS (foetal bovine serum) and 2 mM L-glutamine.
# Compounds were prepared by an initial first dilution into DMSO to give 1 mM stock concentration. This was followed by a 1 in 10 dilution of the stock concentration (10 μl stock compound+90 μl DMSO) to give 0.1 mM compound.
# A compound addition plate was prepared by making a further 1 in 25 dilution in assay buffer (HBSS solution containing 10 mM HEPES pH7.4 and 5 mM glucose) containing 4% dimethylsulfoxide. The final compound concentration in assay is 1 μM.
# Adherent H292 cells are removed from tissue culture flasks by treatment with Accutase™ cell detachment solution for 15 minutes. Flasks are incubated for 15 minutes in a humidified incubator at 37° C., 5% CO2. Detached cells are re-suspended in RPMI media (containing 10% (v/v) FBS and 2 mM L-glutamine) at 0.1×10^6 cells per mL. 10000 cells in 100 μL are added to each well of a tissue-culture-treated 96-well plate and the cells incubated overnight in a humidified incubator at 37° C., 5% CO2. The culture media is removed and cells are washed twice with 100 μL assay buffer and replaced with 50 μL assay buffer (HBSS solution containing 10 mM HEPES pH7.4 and 5 mM glucose). Cells are rested at room temperature for 20 minutes after which time 25 μL of rolipram (1.2 mM made up in assay buffer) is added. Cells are incubated with rolipram for 10 minutes after which time 25 μl test compounds are added and the cells are incubated for 60 minutes at room temperature. The final rolipram concentration in the assay is 300 μM and final vehicle concentration is 1% (v/v) dimethylsulphoxide. The reaction is stopped by removing supernatants, washing once with 100 μL assay buffer and replacing with 50 μL lysis buffer. The cell monolayer is frozen at −80° C. for 30 minutes (or overnight).
# AlphaScreen™ cAMP Detection
# The concentration of cAMP (cyclic adenosine monophosphate) in the cell lysate is determined using AlphaScreen™ methodology. The frozen cell plate is thawed for 20 minutes on a plate shaker then 10 μL of the cell lysate is transferred to a 96-well white plate. 40 μL of mixed AlphaScreen™ detection beads (containing equal volumes of donor beads (pre-incubated with biotinylated cAMP in the dark for 30 minutes) and acceptor beads is added to each well and the plate incubated at room temperature for 3 hours in the dark. The AlphaScreen™ signal is measured using an EnVision spectrophotometer (Perkin-Elmer Inc.) with the recommended manufacturer's settings. Concentration of cAMP produced per well were calculated with reference to the cAMP standard curve determined in the same experiment and expressed as a percentage of the maximum response generated by 1E-07M formoterol.
# T1 sequence (P20309 whole entry): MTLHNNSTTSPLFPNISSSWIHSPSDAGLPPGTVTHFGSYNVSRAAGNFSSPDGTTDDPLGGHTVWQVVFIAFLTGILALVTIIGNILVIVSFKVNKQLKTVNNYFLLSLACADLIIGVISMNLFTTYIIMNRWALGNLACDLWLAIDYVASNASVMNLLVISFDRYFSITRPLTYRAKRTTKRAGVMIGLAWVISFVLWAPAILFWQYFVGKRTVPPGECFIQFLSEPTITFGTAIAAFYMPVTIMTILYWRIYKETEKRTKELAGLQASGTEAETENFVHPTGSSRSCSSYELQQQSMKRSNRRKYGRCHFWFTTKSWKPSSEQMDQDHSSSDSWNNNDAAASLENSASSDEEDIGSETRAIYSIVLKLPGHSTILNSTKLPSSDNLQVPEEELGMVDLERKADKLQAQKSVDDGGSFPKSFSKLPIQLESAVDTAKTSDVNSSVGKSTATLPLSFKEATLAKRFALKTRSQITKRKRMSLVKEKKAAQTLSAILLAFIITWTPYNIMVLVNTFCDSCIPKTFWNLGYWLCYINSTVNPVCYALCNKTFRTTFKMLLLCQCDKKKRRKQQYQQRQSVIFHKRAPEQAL
# T2 sequence (P07550 whole entry): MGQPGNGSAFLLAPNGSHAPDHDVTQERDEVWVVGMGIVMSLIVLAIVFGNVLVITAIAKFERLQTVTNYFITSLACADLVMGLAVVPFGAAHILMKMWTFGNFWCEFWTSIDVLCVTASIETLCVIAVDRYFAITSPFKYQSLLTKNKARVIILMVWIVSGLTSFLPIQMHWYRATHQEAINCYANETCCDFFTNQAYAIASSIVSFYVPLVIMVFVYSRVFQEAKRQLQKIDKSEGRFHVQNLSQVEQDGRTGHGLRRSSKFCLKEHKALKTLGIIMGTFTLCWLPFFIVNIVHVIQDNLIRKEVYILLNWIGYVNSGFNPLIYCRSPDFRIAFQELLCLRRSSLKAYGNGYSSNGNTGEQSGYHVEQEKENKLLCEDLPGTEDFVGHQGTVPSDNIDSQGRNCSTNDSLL
SMILES,inhibition at 1 µM [1],activation at 1 µM [2],M3 (% inhibition at 1 μM) ([1]; 1 µM),β2 (% effect at 1 μM) ([2]; 1 μM compound)
"O=C(c1ccc(-n2ccnc2)cc1)N1CCOC2(CCN(Cc3cc(F)cc(CCNC[C@H](O)c4ccc(O)c5[nH]c(=O)sc45)c3)CC2)C1 [Example 156, (R)-7-(2-(3-((4-(4-(1H-imidazol-1-yl)benzoyl)-1-oxa-4,9-diazaspiro[5.5]undecan-9-yl)methyl)-5-fluorophenethylamino)-1-hydroxyethyl)-4-hydroxybenzo[d]thiazol-2(3H)-one]",3%,106%,,
"O=C(Cc1ccsc1)N1CCOC2(CCN(Cc3cc(F)cc(CCNC[C@H](O)c4ccc(O)c5[nH]c(=O)sc45)c3)CC2)C1 [Example 126, (R)-7-(2-(3-fluoro-5-((4-(2-(thiophen-3-yl)acetyl)-1-oxa-4,9-diazaspiro[5.5]undecan-9-yl)methyl)phenethylamino)-1-hydroxyethyl)-4-hydroxybenzo[d]thiazol-2(3H)-one]",50%,98%,,
"Cc1nc2cc(C(=O)N3CCOC4(CCN(CCOc5ccc(CNC[C@H](O)c6ccc(O)c7[nH]c(=O)sc67)cc5)CC4)C3)ccc2s1 [Example 256, (R)-4-hydroxy-7-(1-hydroxy-2-(4-(2-(4-(2-methylbenzo[d]thiazole-5-carbonyl)-1-oxa-4,9-diazaspiro[5.5]undecan-9-yl)ethoxy)benzylamino)ethyl) benzo[d]thiazol-2(3H)-one]",38%,76%,,
"O=C(c1ccc(-c2ccccc2)cc1)N1CCOC2(CCN(Cc3cc(F)cc(CCNC[C@H](O)c4ccc(O)c5[nH]c(=O)sc45)c3)CC2)C1 [Example 169, (R)-7-(2-(3-((4-(biphenylcarbonyl)-1-oxa-4,9-diazaspiro[5.5]undecan-9-yl)methyl)-5-fluorophenethylamino)-1-hydroxyethyl)-4-hydroxybenzo[d]thiazol-2(3H)-one]",,,−2%,92%
"CC(C)(C(=O)N1CCOC2(CCN(CCOc3ccc(CNC[C@H](O)c4ccc(O)c5[nH]c(=O)sc45)cc3)CC2)C1)c1ccccc1 [Example 230, (R)-4-hydroxy-7-(1-hydroxy-2-(4-(2-(4-(2-methyl-2-phenylpropanoyl)-1-oxa-4,9-diazaspiro[5.5]undecan-9-yl)ethoxy)benzylamino)ethyl) benzo[d]thiazol-2(3H)-one]",31%,70%,,
"CCCc1nc(C(=O)N2CCOC3(CCN(CCOc4ccc(CNC[C@H](O)c5ccc(O)c6[nH]c(=O)sc56)cc4)CC3)C2)cs1 [Example 260, (R)-4-hydroxy-7-(1-hydroxy-2-(4-(2-(4-(2-propylthiazole-4-carbonyl)-1-oxa-4,9-diazaspiro[5.5]undecan-9-yl)ethoxy)benzylamino)ethyl) benzo[d]thiazol-2(3H)-one]",93%,56%,,
"Cc1ccoc1C(=O)N1CCOC2(CCN(CCOc3ccc(CNC[C@H](O)c4ccc(O)c5[nH]c(=O)sc45)cc3)CC2)C1 [Example 234, (R)-4-hydroxy-7-(1-hydroxy-2-(4-(2-(4-(3-methylfuran-2-carbonyl)-1-oxa-4,9-diazaspiro[5.5]undecan-9-yl)ethoxy)benzylamino)ethyl) benzo[d]thiazol-2(3H)-one]",80%,78%,,
"Cc1ccn(CC(=O)N2CCOC3(CCN(CCOc4ccc(CNC[C@H](O)c5ccc(O)c6[nH]c(=O)sc56)cc4)CC3)C2)n1 [Example 245, (R)-4-hydroxy-7-(1-hydroxy-2-(4-(2-(4-(2-(3-methyl-1H-pyrazol-1-yl)acetyl)-1-oxa-4,9-diazaspiro[5.5]undecan-9-yl)ethoxy)benzylamino)ethyl) benzo[d]thiazol-2(3H)-one]",51%,76%,,
"O=C(c1csc(C2CCC2)n1)N1CCOC2(CCN(CCOc3ccc(CNC[C@H](O)c4ccc(O)c5[nH]c(=O)sc45)cc3)CC2)C1 [Example 261, (R)-7-(2-(4-(2-(4-(2-cyclobutylthiazole-4-carbonyl)-1-oxa-4,9-diazaspiro[5.5]undecan-9-yl)ethoxy)benzylamino)-1-hydroxyethyl)-4-hydroxy-benzo[d]thiazol-2(3H)-one]",90%,70%,,

# More lines, main results first:
inhibition at 1 µM [1],activation at 1 µM [2],SMILES,M3 (% inhibition at 1 μM) ([1]; 1 µM),β2 (% effect at 1 μM) ([2]; 1 μM compound)
34%,101%,"Cn1c(C(=O)N2CCOC3(CCN(Cc4cc(F)cc(CCNC[C@H](O)c5ccc(O)c6[nH]c(=O)sc56)c4)CC3)C2)cc2ccccc21 [Example 139, (R)-7-(2-(3-fluoro-5-((4-(1-methyl-1H-indole-2-carbonyl)-1-oxa-4,9-diazaspiro[5.5]undecan-9-yl)methyl)phenethylamino)-1-hydroxyethyl)-4-hydroxybenzo[d]thiazol-2(3H)-one]",,
13%,110%,"Cc1nc2ccccn2c1C(=O)N1CCOC2(CCN(Cc3cc(F)cc(CCNC[C@H](O)c4ccc(O)c5[nH]c(=O)sc45)c3)CC2)C1 [Example 152, (R)-7-(2-(3-fluoro-5-((4-(2-methylimidazo[1,2-a]pyridine-3-carbonyl)-1-oxa-4,9-diazaspiro[5.5]undecan-9-yl)methyl)phenethylamino)-1-hydroxyethyl)-4-hydroxybenzo[d]thiazol-2(3H)-one]",,
41%,95%,"Cc1occc1C(=O)N1CCOC2(CCN(Cc3cc(F)cc(CCNC[C@H](O)c4ccc(O)c5[nH]c(=O)sc45)c3)CC2)C1 [Example 131, (R)-7-(2-(3-fluoro-5-((4-(2-methylfuran-3-carbonyl)-1-oxa-4,9-diazaspiro[5.5]undecan-9-yl)methyl)phenethylamino)-1-hydroxyethyl)-4-hydroxybenzo[d]thiazol-2(3H)-one]",,
4%,101%,"O=C(c1cc(-c2ccccc2)n[nH]1)N1CCOC2(CCN(Cc3cc(F)cc(CCNC[C@H](O)c4ccc(O)c5[nH]c(=O)sc45)c3)CC2)C1 [Example 155, (R)-7-(2-(3-fluoro-5-((4-(3-phenyl-1H-pyrazole-5-carbonyl)-1-oxa-4,9-diazaspiro[5.5]undecan-9-yl)methyl)phenethylamino)-1-hydroxyethyl)-4-hydroxybenzo[d]thiazol-2(3H)-one]",,
16%,88%,"O=C(c1cc2cc(Cl)ccc2o1)N1CCOC2(CCN(Cc3cc(F)cc(CCNC[C@H](O)c4ccc(O)c5[nH]c(=O)sc45)c3)CC2)C1 [Example 182, (R)-7-(2-(3-((4-(5-chlorobenzofuran-2-carbonyl)-1-oxa-4,9-diazaspiro[5.5]undecan-9-yl)methyl)-5-fluorophenethylamino)-1-hydroxyethyl)-4-hydroxybenzo[d]thiazol-2(3H)-one]",,
16%,87%,"CC(C)(C(=O)N1CCOC2(CCN(Cc3cc(F)cc(CCNC[C@H](O)c4ccc(O)c5[nH]c(=O)sc45)c3)CC2)C1)c1ccccc1 [Example 176, (R)-7-(2-(3-fluoro-5-((4-(2-methyl-2-phenylpropanoyl)-1-oxa-4,9-diazaspiro[5.5]undecan-9-yl)methyl)phenethylamino)-1-hydroxyethyl)-4-hydroxybenzo[d]thiazol-2(3H)-one]",,
